Literature values as cited in patent US20230165856A1, “DAPAGLIFLOZIN AND AMBRISENTAN FOR THE PREVENTION AND TREATMENT OF COVID-19” (AstraZeneca AB, priority 2020, published 2023).
Like-named read-outs stand apart in the source and are kept apart here.

Columns and labels:
[1] = biological target: T1, endothelin A (ETA) receptor (Homo sapiens, UniProt P25101)
T1 sequence (P25101 21-427): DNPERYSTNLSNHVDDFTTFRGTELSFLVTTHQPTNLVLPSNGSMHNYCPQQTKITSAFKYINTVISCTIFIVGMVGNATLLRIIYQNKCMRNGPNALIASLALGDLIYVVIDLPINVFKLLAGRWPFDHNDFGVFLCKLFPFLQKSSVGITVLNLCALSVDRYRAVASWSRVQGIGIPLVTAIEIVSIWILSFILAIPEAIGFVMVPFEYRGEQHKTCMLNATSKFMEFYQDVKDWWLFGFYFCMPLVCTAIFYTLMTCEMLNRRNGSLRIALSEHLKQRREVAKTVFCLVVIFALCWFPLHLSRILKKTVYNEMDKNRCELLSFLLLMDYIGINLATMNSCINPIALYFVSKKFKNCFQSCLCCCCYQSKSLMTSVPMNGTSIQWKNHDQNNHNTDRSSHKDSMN

[2] = human, in vivo
[3] = experimental pig model of acute lung injury
[4] = endotoxaemic sheep
[5] = HF patients with and without type 2 diabetes mellitus

COC(c1ccccc1)(c1ccccc1)[C@H](Oc1nc(C)cc(C)n1)C(=O)O [Ambrisentan, (2S)-2-[(4,6-dimethylpyrimidin-2-yl)oxy]-3-methoxy-3,3-diphenylpropanoic acid]
selectivity for the ETA versus the ETB receptor [1]: approximately 4000 fold | selectivity for the ET-A receptor compared to bosentan ([1]; compared to bosentan): greater selectivity

COc1ccccc1Oc1c(NS(=O)(=O)c2ccc(C(C)(C)C)cc2)nc(-c2ncccn2)nc1OCCO [Bosentan]
RVSP [2]: rapid and sustained improvement | oxygenation [2]: gradual improvement

COc1cc(OC)nc(O[C@H](C(=O)O)C(OC)(c2ccccc2)c2ccccc2)n1 [LU-135252]
oxygenation [3]: improved oxygenation

COc1ccccc1Oc1c(NS(=O)(=O)c2ccc(C(C)C)cn2)nc(-c2ccnc(-c3nnn[nH]3)c2)nc1OCCO [Tezosentan]
lung injury [4]: attenuated lung injury

CCOc1ccc(Cc2cc([C@@H]3O[C@H](CO)[C@@H](O)[C@H](O)[C@H]3O)ccc2Cl)cc1 [dapagliflozin]
cardiovascular (CV) death [5]: reduced | risk for hospitalization for heart failure (HF) [5]: reduce the risk
